For data set [1], the system named is H460 NSCLC human xenograft. The data set is described as follows: H460 NSCLC human xenograft model, tumor growth. Type of data set: in vivo, NOD/SCID mice. The settings on record: for median tumor volume: day 24, i.p. daily; for median tumor volume / tumor weight smaller than vehicle: losartan 50 mg/kg, astemizole 10 mg/kg; for tumor weight smaller than vehicle: last day of study, i.p. daily, p<0.01.

For data set [2] the following is noted: mouse, in vivo.
Data set [3] relates to non-cancer WI38 fibroblast cell line. Briefly: MTT proliferation assay in WI38 fibroblasts. Type of data set: cell-based. The settings on record: for effect on WI38 proliferation: compared with the NSCLC lines.
Data set [4] relates to NSCLC cancer cell lines H1299, A459, H460. The data set is described as follows: MTT proliferation assay, NSCLC cell panel. Type of data set: cell-based, Human. The settings on record: for EC50: Homo sapiens. For orientation: Formazan colour is commonly taken as a measure of viable cells.
Data set [5] deals with H460. The data set is described as follows: MTT proliferation assay in H460 cells. Type of data set: cell-based, Human. The settings on record: 3 days.
For data set [6], the system named is H460 NSCLC human xenograft. Briefly: Histopathology of resected tumors, mitotic index. Type of data set: in vivo, NOD/SCID mice.

“Also recorded” adds a separate entry of the source.

As to `COc1ccc(CCN2CCC(Nc3nc4ccccc4n3Cc3ccc(F)cc3)CC2)cc1` [Astemizole], in data set [1] (astemizole group n = 9, smallest vehicle tumor 3.2 g), the “number of mice with tumors that weighed less than 3.2 g” value is reported as “Three”. For the same compound, in data set [1], the median tumor volume is 2,810 mm^3 and the “tumor weight smaller than vehicle” value is 15%. In addition, the “animal's body weight” value in data set [2] is on record as “no significant alteration”.

For `C=C(c1ccc(C(=O)O)cc1)c1cc2c(cc1C)C(C)(C)CCC2(C)C` [Bexarotene], the “effect on WI38 proliferation” value in data set [3] is listed as “weaker effect on WI38 proliferation”. The compound further gave an EC50 in data set [4] of roughly 50 µM.

On to `Cc1nc(Nc2ncc(C(=O)Nc3c(C)cccc3Cl)s2)cc(N2CCN(CCO)CC2)n1` [Dasatinib], for which the EC50 entry in data set [3] (WI38, MTT, 3 days) was “sub-micromolar”.

For `CN1C[C@H](C(=O)N[C@]2(C)O[C@@]3(O)[C@@H]4CCCN4C(=O)[C@H](Cc4ccccc4)N3C2=O)C=C2c3cccc4[nH]cc(c34)C[C@H]21` [Ergotamine], in data set [3], the “effect on WI38 proliferation” value is listed as “significantly less effect on WI38”. In data set [5], this compound returned an EC50 of 26 ± 1 µM.

In data set [4], `CS(=O)(=O)CCNCc1ccc(-c2ccc3ncnc(Nc4ccc(OCc5cccc(F)c5)c(Cl)c4)c3c2)o1` [Lapatinib] returned an EC50 of 30 to 40 µM.

For the compound `CCCCc1nc(Cl)c(CO)n1Cc1ccc(-c2ccccc2-c2nn[nH]n2)cc1` [Losartan], the “G2M arrest in the cell cycle” value in data set [6] (histopathology of resected tumors) is reported as “significant propensity to cause G2M arrest; also recorded: induced more significant G2M arrest”. Besides, the “mitotic index (MI)” value in data set [6] (ratio of mitotic to non-mitotic cells in tumor tissue, vehicle 7) is 18. Further, in data set [1], the median tumor volume is given as 2,463 mm^3 and the “tumor weight smaller than vehicle” value is on record as 50%. The “number of mice with tumors that weigh less than 2.5 g” value in data set [1] (losartan group n = 10, none of the vehicle) is recorded as “Four”. Besides, in data set [2], the “animal's body weight” value was “no significant alteration”. The cytotoxicity entry in data set [4] (concentrations up to 100 μM) is recorded as “very little cytotoxicity”.

For orientation: EC50 means the concentration needed to bring the measured effect to its halfway point. A higher EC50 goes with a need for much substance.
